Reference: ChEMBL document CHEMBL1201862, “PubChem BioAssay data set” (2004)
The source made the active and inactive calls.

Tests used:
Hexokinase = Hexokinase (Trypanosoma brucei, UniProt Q38C41); assay: Confirmation assay for inhibitors of Trypanosoma brucei hexokinase 1-Analogue-first series. [Related pubchem assays (depositor defined):AID1430, AID1632, AID2516, AID2560, AID2579, AID2600, AID449725, AID492951]; type: functional
[1] = biological target: Peroxisome proliferator-activated receptor gamma (Homo sapiens, UniProt P37231); assay: PPARg transcriptional activation, reporter cells – cell-based, luminescence, assay provider, dose response (AID 504447); type: functional
Peroxisome proliferator-activated receptor gamma, sequence (P37231 whole entry): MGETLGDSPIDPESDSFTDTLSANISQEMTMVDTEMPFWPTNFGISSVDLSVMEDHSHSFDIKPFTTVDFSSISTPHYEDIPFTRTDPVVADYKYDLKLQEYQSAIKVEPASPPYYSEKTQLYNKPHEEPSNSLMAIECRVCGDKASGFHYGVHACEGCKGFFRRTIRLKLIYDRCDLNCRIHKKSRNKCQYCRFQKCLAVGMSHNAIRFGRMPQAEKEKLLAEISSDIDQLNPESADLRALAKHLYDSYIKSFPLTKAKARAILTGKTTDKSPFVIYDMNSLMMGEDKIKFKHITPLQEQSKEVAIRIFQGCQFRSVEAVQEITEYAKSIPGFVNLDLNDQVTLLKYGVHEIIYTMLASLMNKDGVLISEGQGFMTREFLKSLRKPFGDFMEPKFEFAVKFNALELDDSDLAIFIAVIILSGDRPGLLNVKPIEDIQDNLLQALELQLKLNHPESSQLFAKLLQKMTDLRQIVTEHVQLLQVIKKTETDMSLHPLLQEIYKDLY

Streptococcus = assay: GAS UMAA2166 growth inhibition – luminescence, BacTiterGlo, counter-screen for streptokinase expression inhibitor project, dose response (AID 1915); type: functional, organism-based; details: Streptococcus;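 note: potency for reduction of bacterial viability or growth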
Streptokinase A = biological target: T1, Streptokinase A (Streptococcus pyogenes serotype M1, UniProt P10520); assay: viability-normalized secreted streptokinase activity reduction – plasminogen activation absorbance, OD405, dose response (AID 1914); type: functional, Streptococcus pyogenes M1 GAS;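 note: secreted streptokinase activity via plasminogen activation per viability signal from cell pellet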
T1 sequence (P10520 whole entry): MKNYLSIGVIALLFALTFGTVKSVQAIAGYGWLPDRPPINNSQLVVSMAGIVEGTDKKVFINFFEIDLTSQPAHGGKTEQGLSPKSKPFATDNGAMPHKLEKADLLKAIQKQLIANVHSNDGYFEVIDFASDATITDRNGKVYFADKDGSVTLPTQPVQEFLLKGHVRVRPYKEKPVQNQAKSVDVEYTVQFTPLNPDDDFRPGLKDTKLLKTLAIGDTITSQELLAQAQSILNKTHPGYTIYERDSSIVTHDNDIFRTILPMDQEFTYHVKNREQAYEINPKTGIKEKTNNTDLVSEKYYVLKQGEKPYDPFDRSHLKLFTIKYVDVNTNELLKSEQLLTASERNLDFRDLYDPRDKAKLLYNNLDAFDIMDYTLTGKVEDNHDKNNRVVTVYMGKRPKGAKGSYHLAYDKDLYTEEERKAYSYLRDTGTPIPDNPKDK

[2] = system: Streptococcus sp. 'group A'; assay: Streptococcus pyogenes SK(-)GAS viability under kanamycin – luminescence, BacTiterGlo, confirmation, counter-screen for streptokinase expression inhibitor project, dose response (AID 1900); type: functional, organism-based; details: Streptococcus sp. 'group A'
[3] = biological target: T2, G-protein coupled receptor 55 (Homo sapiens, UniProt Q9Y2T6); assay: inhibition of LPI-stimulated GPR55 beta-arrestin translocation – imaging, U2OS, beta-arrestin-GFP, LPI agonist, primary screen (AID 2013); type: functional;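 note: antagonist potency measured as reduced agonist-driven arrestin aggregation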
T2 sequence (Q9Y2T6 whole entry): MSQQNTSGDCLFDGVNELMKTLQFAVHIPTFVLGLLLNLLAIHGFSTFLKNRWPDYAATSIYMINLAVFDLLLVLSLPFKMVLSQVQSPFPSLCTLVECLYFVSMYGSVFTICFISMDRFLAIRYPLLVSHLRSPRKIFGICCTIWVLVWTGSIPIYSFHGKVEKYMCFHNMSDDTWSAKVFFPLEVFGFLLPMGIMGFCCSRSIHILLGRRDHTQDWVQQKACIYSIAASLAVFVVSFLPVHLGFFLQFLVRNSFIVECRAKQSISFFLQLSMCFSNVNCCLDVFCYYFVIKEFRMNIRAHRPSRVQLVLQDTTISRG

[4] = biological target: DNA damage-inducible transcript 3 protein (Mus musculus, UniProt P35639); type: functional, Cricetulus griseus
DNA damage-inducible transcript 3 protein, sequence (P35639 whole entry): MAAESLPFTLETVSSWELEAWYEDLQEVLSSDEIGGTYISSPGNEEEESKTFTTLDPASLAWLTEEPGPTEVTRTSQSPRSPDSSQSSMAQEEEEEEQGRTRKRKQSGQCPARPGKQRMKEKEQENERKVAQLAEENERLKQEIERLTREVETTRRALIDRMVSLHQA

Cannabinoid receptor 1 [5] = biological target: T3, Cannabinoid receptor 1 (Homo sapiens, UniProt P21554); assay: SAR analysis of antagonists of the Cannabinoid Receptor 1 using an Image-Based Assay - Set 3. [Related pubchem assays (depositor defined):AID1961, AID1965]; type: functional
T3 sequence (P21554 whole entry): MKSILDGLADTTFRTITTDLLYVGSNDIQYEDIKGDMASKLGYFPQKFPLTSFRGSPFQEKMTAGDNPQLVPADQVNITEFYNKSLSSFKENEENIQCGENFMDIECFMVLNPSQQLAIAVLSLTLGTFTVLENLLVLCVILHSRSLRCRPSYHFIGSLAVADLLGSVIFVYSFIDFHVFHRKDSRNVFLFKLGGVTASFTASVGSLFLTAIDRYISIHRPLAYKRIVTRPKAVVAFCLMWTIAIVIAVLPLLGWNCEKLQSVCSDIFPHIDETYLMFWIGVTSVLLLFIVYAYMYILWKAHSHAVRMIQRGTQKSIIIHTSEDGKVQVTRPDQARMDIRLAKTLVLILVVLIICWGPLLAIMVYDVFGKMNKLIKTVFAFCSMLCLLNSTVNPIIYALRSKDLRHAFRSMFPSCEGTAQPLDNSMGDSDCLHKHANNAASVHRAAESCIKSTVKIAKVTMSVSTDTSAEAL

[6] = biological target: T4, G-protein coupled receptor 35 (Homo sapiens, UniProt Q9HC97); assay: SAR analysis of Antagonists of the GPR35 Receptor using an Image-Based Assay - Set 4. [Related pubchem assays (depositor defined):[…]]; type: functional
T4 sequence (Q9HC97 whole entry): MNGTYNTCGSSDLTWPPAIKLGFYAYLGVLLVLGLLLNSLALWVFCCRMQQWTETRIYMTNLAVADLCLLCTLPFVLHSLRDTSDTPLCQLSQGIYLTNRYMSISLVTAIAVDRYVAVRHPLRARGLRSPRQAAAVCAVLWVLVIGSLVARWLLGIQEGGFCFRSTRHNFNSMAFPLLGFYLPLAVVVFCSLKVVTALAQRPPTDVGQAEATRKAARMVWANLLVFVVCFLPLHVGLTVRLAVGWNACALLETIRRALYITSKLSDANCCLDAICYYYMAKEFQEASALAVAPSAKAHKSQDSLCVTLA

Cannabinoid receptor 2 [7] = biological target: T5, Cannabinoid receptor 2 (Homo sapiens, UniProt P34972); assay: SAR analysis of agonists of the Cannabinoid Receptor 2 using an Image-Based Assay - Set 2. [Related pubchem assays (depositor defined):AID1961, AID1965]; type: functional
T5 sequence (P34972 whole entry): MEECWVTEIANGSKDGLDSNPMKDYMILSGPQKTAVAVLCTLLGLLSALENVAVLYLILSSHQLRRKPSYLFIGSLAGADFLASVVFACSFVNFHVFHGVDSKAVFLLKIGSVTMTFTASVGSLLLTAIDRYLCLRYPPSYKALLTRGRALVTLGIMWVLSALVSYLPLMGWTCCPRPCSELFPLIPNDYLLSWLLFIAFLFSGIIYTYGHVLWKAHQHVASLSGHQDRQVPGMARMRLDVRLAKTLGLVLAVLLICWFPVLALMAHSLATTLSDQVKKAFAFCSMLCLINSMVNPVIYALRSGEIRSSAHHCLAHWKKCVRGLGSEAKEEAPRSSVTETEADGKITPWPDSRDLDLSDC

Cannabinoid receptor 1 [8] = biological target: T3, Cannabinoid receptor 1; assay: SAR analysis of agonists of the Cannabinoid Receptor 1 using an Image-Based Assay - Set 3. [Related pubchem assays (depositor defined):AID1961, AID1965]; type: functional
Cannabinoid receptor 2 [9] = biological target: T5, Cannabinoid receptor 2; assay: SAR analysis of antagonists of the Cannabinoid Receptor 2 using an Image-Based Assay - Set 2. [Related pubchem assays (depositor defined):AID1961, AID1965]; type: functional
[10] = biological target: T2, G-protein coupled receptor 55; assay: SAR analysis of selective Agonists of GPR55 using an Image-Based Assay - Set 2. [Related pubchem assays (depositor defined):AID1961, AID1965]; type: functional
[11] = biological target: T4, G-protein coupled receptor 35; assay: SAR analysis of Agonists of the GPR35 Receptor using an Image-Based Assay - Set 3. [Related pubchem assays (depositor defined):AID1961, AID1965]; type: functional
[12] = biological target: Type-1 angiotensin II receptor (Homo sapiens, UniProt P30556); assay: agonist activity at AGTR1 – cell-based, uHTS hits, selectivity assay for APJ receptor agonist project, dose response (AID 488865); type: functional;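 note: beta-arrestin recruitment to AT1 measured by enzyme fragment complementation luminescence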
Type-1 angiotensin II receptor, sequence (P30556 whole entry, the tested form may be a part): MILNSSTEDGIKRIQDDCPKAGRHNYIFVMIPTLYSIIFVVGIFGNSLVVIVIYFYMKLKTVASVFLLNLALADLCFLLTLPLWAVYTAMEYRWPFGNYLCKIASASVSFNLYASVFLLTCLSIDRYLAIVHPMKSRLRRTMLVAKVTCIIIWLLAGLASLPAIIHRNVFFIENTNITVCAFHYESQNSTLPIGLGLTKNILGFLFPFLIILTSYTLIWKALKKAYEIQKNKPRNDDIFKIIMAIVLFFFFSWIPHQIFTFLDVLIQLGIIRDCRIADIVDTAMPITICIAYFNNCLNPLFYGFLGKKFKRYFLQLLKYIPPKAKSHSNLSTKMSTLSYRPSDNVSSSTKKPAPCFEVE

Hexokinase, sequence (Q38C41 whole entry): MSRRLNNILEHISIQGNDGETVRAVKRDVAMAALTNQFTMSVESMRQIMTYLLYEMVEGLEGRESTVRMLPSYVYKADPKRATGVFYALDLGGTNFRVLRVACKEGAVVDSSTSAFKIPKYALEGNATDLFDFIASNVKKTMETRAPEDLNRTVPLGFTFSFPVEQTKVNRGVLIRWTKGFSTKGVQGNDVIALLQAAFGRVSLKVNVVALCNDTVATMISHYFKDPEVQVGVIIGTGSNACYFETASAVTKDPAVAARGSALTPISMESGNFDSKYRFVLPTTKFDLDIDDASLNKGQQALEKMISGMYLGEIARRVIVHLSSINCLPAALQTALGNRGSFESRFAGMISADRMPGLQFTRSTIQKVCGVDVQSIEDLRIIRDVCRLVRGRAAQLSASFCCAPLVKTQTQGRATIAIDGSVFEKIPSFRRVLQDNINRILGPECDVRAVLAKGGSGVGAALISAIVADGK

COc1ccc(C(=O)NC(C(=O)O)c2ccccc2)cc1 (stereo not given)
IC50 (Hexokinase): > 25 µM (inactive)

CN1CCN(S(=O)(=O)c2ccc(Sc3nc4ccccc4[nH]3)c3nsnc23)CC1
EC50 [1]: 7.6 µM (active)

c1ccc2c(-c3c[nH]c4ccccc34)c3ccccc3nc2c1
EC50 (Streptococcus): 15.8 µM (active) | EC50 (Streptokinase A): > 150 µM (not active) | EC50 [2]: 8.94 µM (active) | IC50 [3]: 4.83 µM (active)

CCOc1cccc(CN2CCN(c3cccc(C(F)(F)F)c3)CC2)c1O
Absolute IC50 (CHOP) [4]: 10 µM

Cc1cccc(N2CCN(C(=O)c3cc(S(=O)(=O)N(C)C)ccc3Cl)CC2)c1C
IC50 (Cannabinoid receptor 1 [5]): 15.6 µM (inactive) | IC50 [6]: > 32 µM (inactive) | EC50 (Cannabinoid receptor 2 [7]): > 32 µM (inactive) | EC50 (Cannabinoid receptor 1 [8]): > 32 µM (inactive) | IC50 (Cannabinoid receptor 2 [9]): > 32 µM (inactive) | EC50 [10]: 1.53 µM (active) | EC50 [11]: > 32 µM (inactive)

CCCCC1=CC2=CC(=O)C(C)(OC(=O)CC)C(=O)C2=CN1C1CCCCC1 (stereo not given)
EC50 [12]: > 100 µM (inactive)
